Data reported in patent US9193714B2, “Fluorinated estrogen receptor modulators and uses thereof” (priority 2011, dated 2015).
Where two headings read alike, the source gives them in different places.

Columns and labels:
ER-α = biological target: T1, ER-α (Homo sapiens, UniProt P03372); test: Breast Cancer Cell ER-α in Cell Western Assay (SP1); assay type: cell-based; settings: MCF7, read-out: ER In-Cell Western Assay (SP1); Max Response
T1 construct: endogenous in cells; host or cells: MCF-7
Method: MCF-7 cells were adjusted to a concentration of 200,000 cells per mL in RPMI containing 10% charcoal-stripped FBS and 20 mM HEPES. 16 microliters of the cell suspension (3200 cells) was added to each well of a poly-D-lysine 384 well plate, and the cells were incubated overnight to allow the cells to adhere. The following day an eleven point, serial semilog dilution of each compound was added to the cells in 16 μL at a final concentration ranging from 0.3-0.000003 μM. At 4 or 24 hr post compound addition, the cells were fixed (10% formalin in PBS) for 20 minutes. Cells were permeablized in PBS 0.1% Triton and blocked with LICOR blocking buffer (50 μl/well, 90′). The wells were then incubated overnight at 4° C. with SP1 rabbit monoclonal Ab (Thermo Scientific) diluted 1:1000 in LICOR blocking buffer/0.1% Tween-20. Wells which were treated with blocking buffer with Tween but no antibody were used as a background control. Wells were washed with 0.1% Tween-20/PBS and then incubated in goat anti-rabbit IRDye™ 800 CW (LICOR Inc.; 1:1000) and DRAQ5 DNA dye (1:2000 for 2 mM stock) diluted in LICOR blocking buffer containing 0.1% Tween-20 and 0.01% SDS for 60 minutes. Cells were washed (50 μl/well, 5′ each) in 0.1% Tween-20/PBS. Plates were scanned on a LICOR Odyssey infrared imaging system. Integrated intensities in the 800 nm channel and 700 nm channel were measured to determine levels of ER and DNA respectively. Percent ER levels were determined as follows: (Integrated intensity 800 nm sample/integrated intensity 700 nm sample)/(Integrated intensity 800 nm untreated cells/integrated intensity 700 nm untreated cells)×100=% ER levels.

MCF-7 cells = test: Breast Cancer Cell Viability Assay (MCF7 Viability Assay); assay type: cell-based; settings: for IC50: Homo sapiens, MCF7, 120 h, read-out: MCF7 Viability Assay IC50
Method: MCF-7 cells were adjusted to a concentration of 20,000 cells per mL in RPMI containing 10% FBS and 20 mM HEPES. 16 microliters of the cell suspension (320 cells) was added to each well of a 384 well plate, and the cells were incubated overnight to allow the cells to adhere. The following day an eleven point, serial semilog dilution of each compound was added to the cells in 16 μL at a final concentration ranging from 0.3-0.000003 μM. After 5 days' compound exposure, 16 μL of CellTiter-GLo (Promega, Madison Wis.) was added to the cells the relative luminescence units (RLUs) of each well was determined. CellTiter-Glo added to 32 μL of medium without cells was used to obtain a background value. The Percent viability of each sample was determined as follows: (RLU sample-RLU background/RLU untreated cells-RLU background)×100=% viability.

[1] = MCF-7 cells, 5 days' compound exposure, CellTiter-Glo

T1 sequence (P03372 whole entry): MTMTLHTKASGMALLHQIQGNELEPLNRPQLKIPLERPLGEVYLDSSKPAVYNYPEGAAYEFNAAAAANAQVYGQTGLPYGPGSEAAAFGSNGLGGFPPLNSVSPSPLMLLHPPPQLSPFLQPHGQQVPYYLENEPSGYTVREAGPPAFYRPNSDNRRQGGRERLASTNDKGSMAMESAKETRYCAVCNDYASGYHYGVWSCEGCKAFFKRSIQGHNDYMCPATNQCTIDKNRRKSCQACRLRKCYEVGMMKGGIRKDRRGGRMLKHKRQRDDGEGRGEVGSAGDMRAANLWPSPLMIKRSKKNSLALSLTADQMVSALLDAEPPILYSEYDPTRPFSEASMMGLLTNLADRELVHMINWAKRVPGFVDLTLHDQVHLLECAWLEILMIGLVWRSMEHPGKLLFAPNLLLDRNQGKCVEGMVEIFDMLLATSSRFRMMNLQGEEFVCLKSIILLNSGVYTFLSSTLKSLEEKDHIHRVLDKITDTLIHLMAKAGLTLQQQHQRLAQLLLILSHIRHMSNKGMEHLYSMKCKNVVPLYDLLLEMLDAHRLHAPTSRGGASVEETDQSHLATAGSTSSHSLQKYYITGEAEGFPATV

Q: `CC1=C(c2cccc(O)c2)C(c2ccc(OCCN3CCC(F)CC3)cc2)Oc2ccc(O)cc21` (stereo not drawn) [Example 17, 2-(4-(2-(4-Fluoropiperidin-1-yl)ethoxy)phenyl)-3-(3-hydroxyphenyl)-4-methyl-2H-chromen-6-ol] was tested. Which Emax (ER-α) did it give?
A: 60 to 85%

Q: What about the IC50 (MCF-7 cells; [1]) of the same compound?
A: < 1 nM

Q: What about the “MCF7 Viability Assay Max Response” value (MCF-7 cells; [1]) of the same compound?
A: ++ (a single % value ≧ 50%)

Q: What does the source list for `CC1=C(c2cccc(O)c2)C(c2ccc(OCCN3CC[C@@H](C(F)F)C3)cc2)Oc2ccc(O)cc21` (stereo partly drawn) [Example 21, (R)-2-(4-(2-(3-(Difluoromethyl)pyrrolidin-1-yl)ethoxy)phenyl)-3-(3-hydroxyphenyl)-4-methyl-2H-chromen-6-ol]?
A: Emax (ER-α): > 85%; IC50 (MCF-7 cells): < 1 nM; MCF7 Viability Assay Max Response (MCF-7 cells; [1]): ++ (a single % value ≧ 50%)

Q: Which Emax (ER-α) does the source give for `CC1=C(c2ccc(C#N)cc2)C(c2ccc(OC[C@H](C)N3CC[C@@H](CF)C3)cc2)Oc2ccc(O)cc21` (stereo partly drawn) [Example 16] here?
A: > 85%

Q: And the IC50 (MCF-7 cells; [1])?
A: > 1 nM

Q: And the “MCF7 Viability Assay Max Response” value (MCF-7 cells; [1])?
A: ++ (a single % value ≧ 50%)

Q: Which Emax (ER-α) does the source give for `CC1=C(c2cc(O)ccc2F)C(c2ccc(OCCN3CC[C@@H](CF)C3)cc2)Oc2ccc(O)cc21` (stereo partly drawn) [Example 7, 3-(2-Fluoro-5-hydroxyphenyl)-2-(4-(2-((R)-3-(fluoromethyl)pyrrolidin-1-yl)ethoxy)phenyl)-4-methyl-2H-chromen-6-ol] here?
A: > 85%

Q: What about the IC50 (MCF-7 cells; [1]) of the same compound?
A: < 1 nM

Q: And the “MCF7 Viability Assay Max Response” value (MCF-7 cells; [1])?
A: ++ (a single % value ≧ 50%)

Q: How did the Emax (ER-α) turn out when `CC1=C(c2ccc(O)c(F)c2)C(c2ccc(OC[C@H](C)N3CC[C@@H](CF)C3)cc2)Oc2ccc(O)cc21` (stereo partly drawn) [Example 13, 3-(3-Fluoro-4-hydroxyphenyl)-2-(4-((S)-2-((R)-3-(fluoromethyl)pyrrolidin-1-yl)propoxy)phenyl)-4-methyl-2H-chromen-6-ol] was run?
A: > 85%

Q: And the IC50 (MCF-7 cells; [1])?
A: < 1 nM

Q: What about the “MCF7 Viability Assay Max Response” value (MCF-7 cells; [1]) of the same compound?
A: ++ (a single % value ≧ 50%)

Q: Which results are given for `CCN(CCCF)CCOc1ccc(C2Oc3ccc(O)cc3C(C)=C2c2cccc(O)c2)cc1` (stereo not drawn) [Example 24, 2-(4-(2-(Ethyl(3-fluoropropyl)amino)ethoxy)phenyl)-3-(3-hydroxyphenyl)-4-methyl-2H-chromen-6-ol]?
A: Emax (ER-α): < 60%; IC50 (MCF-7 cells; [1]): < 1 nM; MCF7 Viability Assay Max Response (MCF-7 cells; [1]): ++ (a single % value ≧ 50%)

Q: Which results are given for `CC1=C(c2cccc(O)c2)[C@@H](c2ccc(OCCN3CC[C@@H](CF)C3)cc2)Oc2ccc(O)cc21` (single isomer, unassigned) [Example 2a]?
A: Emax (ER-α): > 85%; IC50 (MCF-7 cells): > 1 nM; MCF7 Viability Assay Max Response (MCF-7 cells; [1]): ++ (a single % value ≧ 50%)

Q: What does the source list for `CC1=C(c2cc(O)cc(F)c2)C(c2ccc(OCCN3CC[C@@H](CF)C3)cc2)Oc2ccc(O)cc21` (stereo partly drawn) [Example 10, 3-(3-Fluoro-5-hydroxyphenyl)-2-(4-(2-((R)-3-(fluoromethyl)pyrrolidin-1-yl)ethoxy)phenyl)-4-methyl-2H-chromen-6-ol]?
A: Emax (ER-α): > 85%; IC50 (MCF-7 cells; [1]): < 1 nM; MCF7 Viability Assay Max Response (MCF-7 cells; [1]): ++ (a single % value ≧ 50%)

Q: With `CC1=C(c2cc(O)c(F)c(F)c2)C(c2ccc(OCCN3CC[C@@H](CF)C3)cc2)Oc2ccc(O)cc21` (stereo partly drawn) [Example 6, 3-(3,4-Difluoro-5-hydroxyphenyl)-2-(4-(2-((R)-3-(fluoromethyl)pyrrolidin-1-yl)ethoxy)phenyl)-4-methyl-2H-chromen-6-ol] as the compound, how does the Emax (ER-α) read?
A: > 85%

Q: And the IC50 (MCF-7 cells; [1])?
A: < 1 nM

Q: And the “MCF7 Viability Assay Max Response” value (MCF-7 cells; [1])?
A: ++ (a single % value ≧ 50%)

Q: How did the Emax (ER-α) turn out when `CC1=C(c2cccc(O)c2)[C@H](c2ccc(OC[C@H](C)N3CC[C@@H](CF)C3)cc2)Oc2ccc(O)cc21` (single isomer, unassigned) [Example 3b] was run?
A: > 85%

Q: What about the IC50 (MCF-7 cells) of the same compound?
A: < 1 nM

Q: What about the “MCF7 Viability Assay Max Response” value (MCF-7 cells; [1]) of the same compound?
A: ++ (a single % value ≧ 50%)

Q: Which results are given for `CC1=C(c2ccc(F)cc2)C(c2ccc(OCCN3CC[C@@H](CF)C3)cc2)Oc2ccc(O)cc21` (stereo partly drawn) [Example 26, 2-(4-(2-((R)-3-(Fluoromethyl)pyrrolidin-1-yl)ethoxy)phenyl)-3-(4-fluorophenyl)-4-methyl-2H-chromen-6-ol]?
A: Emax (ER-α): > 85%; IC50 (MCF-7 cells; [1]): > 1 nM; MCF7 Viability Assay Max Response (MCF-7 cells; [1]): ++ (a single % value ≧ 50%)

Q: Which Emax (ER-α) does the source give for `CC1=C(c2ccc(Cl)cc2)C(c2ccc(OCCN3CC[C@@H](CF)C3)cc2)Oc2ccc(O)cc21` (stereo partly drawn) [Example 4, 3-(4-Chlorophenyl)-2-(4-(2-((R)-3-(fluoromethyl)pyrrolidin-1-yl)ethoxy)phenyl)-4-methyl-2H-chromen-6-ol] here?
A: > 85%

Q: And the IC50 (MCF-7 cells; [1])?
A: > 1 nM

Q: What about the “MCF7 Viability Assay Max Response” value (MCF-7 cells; [1]) of the same compound?
A: ++ (a single % value ≧ 50%)

Q: Which results are given for `CC1=C(c2cccc(O)c2)[C@@H](c2ccc(OC[C@H](C)N3CC[C@@H](CF)C3)cc2)Oc2ccc(O)cc21` (single isomer, unassigned) [Example 3a]?
A: Emax (ER-α): > 85%; IC50 (MCF-7 cells): > 1 nM; MCF7 Viability Assay Max Response (MCF-7 cells; [1]): ++ (a single % value ≧ 50%)

Q: `CC1=C(c2cccc(O)c2)[C@H](c2ccc(OCCN3CC[C@@H](CF)C3)cc2)Oc2ccc(O)cc21` (single isomer, unassigned) [Example 2b] was tested. Which Emax (ER-α) did it give?
A: > 85%

Q: And the IC50 (MCF-7 cells)?
A: < 1 nM

Q: What about the “MCF7 Viability Assay Max Response” value (MCF-7 cells; [1]) of the same compound?
A: ++ (a single % value ≧ 50%)

Q: Which Emax (ER-α) does the source give for `CC1=C(c2cccc(O)c2)C(c2ccc(OC[C@H](C)N3CC[C@@H](CF)C3)cc2)Oc2ccc(O)cc21` (stereo partly drawn) [Example 3, 2-(4-((S)-2-((R)-3-(Fluoromethyl)pyrrolidin-1-yl)propoxy)phenyl)-3-(3-hydroxyphenyl)-4-methyl-2H-chromen-6-ol] here?
A: > 85%

Q: What about the IC50 (MCF-7 cells) of the same compound?
A: < 1 nM

Q: What about the “MCF7 Viability Assay Max Response” value (MCF-7 cells; [1]) of the same compound?
A: ++ (a single % value ≧ 50%)

Q: How did the Emax (ER-α) turn out when `CC1=C(c2ccc(O)c(F)c2)C(c2ccc(OCCN3CC[C@@H](CF)C3)cc2)Oc2ccc(O)cc21` (stereo partly drawn) [Example 5, 3-(3-Fluoro-4-hydroxyphenyl)-2-(4-(2-((R)-3-(fluoromethyl)pyrrolidin-1-yl)ethoxy)phenyl)-4-methyl-2H-chromen-6-ol] was run?
A: > 85%

Q: What about the IC50 (MCF-7 cells; [1]) of the same compound?
A: < 1 nM

Q: And the “MCF7 Viability Assay Max Response” value (MCF-7 cells; [1])?
A: ++ (a single % value ≧ 50%)

Q: With `CC1=C(c2cc(O)c(F)c(F)c2)C(c2ccc(OC[C@H](C)N3CC[C@@H](CF)C3)cc2)Oc2ccc(O)cc21` (stereo partly drawn) [Example 9, 3-(3,4-Difluoro-5-hydroxyphenyl)-2-(4-((S)-2-((R)-3-(fluoromethyl)pyrrolidin-1-yl)propoxy)phenyl)-4-methyl-2H-chromen-6-ol] as the compound, how does the Emax (ER-α) read?
A: > 85%

Q: What about the IC50 (MCF-7 cells; [1]) of the same compound?
A: < 1 nM

Q: What about the “MCF7 Viability Assay Max Response” value (MCF-7 cells; [1]) of the same compound?
A: ++ (a single % value ≧ 50%)

Q: Which results are given for `CC1=C(c2cccc(O)c2)C(c2ccc(OCCN3CCC[C@@H](CF)C3)cc2)Oc2ccc(O)cc21` (stereo partly drawn) [Example 20, 2-(4-(2-((R)-3-(Fluoromethyl)piperidin-1-yl)ethoxy)phenyl)-3-(3-hydroxyphenyl)-4-methyl-2H-chromen-6-ol]?
A: Emax (ER-α): < 60%; IC50 (MCF-7 cells; [1]): < 1 nM; MCF7 Viability Assay Max Response (MCF-7 cells; [1]): + (a single % value < 50%)

Q: `CCN(CCOc1ccc(C2Oc3ccc(O)cc3C(C)=C2c2cccc(O)c2)cc1)CCC(F)(F)F` (stereo not drawn) [Example 25, 2-(4-(2-(Ethyl(3,3,3-trifluoropropyl)amino)ethoxy)phenyl)-3-(3-hydroxyphenyl)-4-methyl-2H-chromen-6-ol] was tested. Which Emax (ER-α) did it give?
A: < 60%

Q: And the IC50 (MCF-7 cells; [1])?
A: > 1 nM

Q: And the “MCF7 Viability Assay Max Response” value (MCF-7 cells; [1])?
A: + (a single % value < 50%)

Q: How did the Emax (ER-α) turn out when `CC1=C(c2cc(O)ccc2F)C(c2ccc(OC[C@H](C)N3CC[C@@H](CF)C3)cc2)Oc2ccc(O)cc21` (stereo partly drawn) [Example 14, 3-(2-Fluoro-5-hydroxyphenyl)-2-(4-((S)-2-((R)-3-(fluoromethyl)pyrrolidin-1-yl)propoxy)phenyl)-4-methyl-2H-chromen-6-ol] was run?
A: > 85%

Q: What about the IC50 (MCF-7 cells; [1]) of the same compound?
A: < 1 nM

Q: And the “MCF7 Viability Assay Max Response” value (MCF-7 cells; [1])?
A: ++ (a single % value ≧ 50%)

Q: How did the Emax (ER-α) turn out when `CC1=C(c2ccc(F)c(O)c2)C(c2ccc(OCCN3CC[C@@H](CF)C3)cc2)Oc2ccc(O)cc21` (stereo partly drawn) [Example 8, 3-(4-Fluoro-3-hydroxyphenyl)-2-(4-(2-((R)-3-(fluoromethyl)pyrrolidin-1-yl)ethoxy)phenyl)-4-methyl-2H-chromen-6-ol] was run?
A: > 85%

Q: And the IC50 (MCF-7 cells; [1])?
A: > 1 nM

Q: What about the “MCF7 Viability Assay Max Response” value (MCF-7 cells; [1]) of the same compound?
A: ++ (a single % value ≧ 50%)
